Measurements published in patent publication US12552767B2, “3-heteroaryl pyrrolidine and piperidine orexin receptor agonists” (Merck Sharp & Dohme LLC, priority 2020, dated 2026).

Target: T1, human OX2R (Homo sapiens, UniProt O43614)
T1 construct: expressed in transfected cells; host or cells: CHO (Chinese hamster ovary) cells, grown under G418 selection
T1 sequence (O43614 1-444): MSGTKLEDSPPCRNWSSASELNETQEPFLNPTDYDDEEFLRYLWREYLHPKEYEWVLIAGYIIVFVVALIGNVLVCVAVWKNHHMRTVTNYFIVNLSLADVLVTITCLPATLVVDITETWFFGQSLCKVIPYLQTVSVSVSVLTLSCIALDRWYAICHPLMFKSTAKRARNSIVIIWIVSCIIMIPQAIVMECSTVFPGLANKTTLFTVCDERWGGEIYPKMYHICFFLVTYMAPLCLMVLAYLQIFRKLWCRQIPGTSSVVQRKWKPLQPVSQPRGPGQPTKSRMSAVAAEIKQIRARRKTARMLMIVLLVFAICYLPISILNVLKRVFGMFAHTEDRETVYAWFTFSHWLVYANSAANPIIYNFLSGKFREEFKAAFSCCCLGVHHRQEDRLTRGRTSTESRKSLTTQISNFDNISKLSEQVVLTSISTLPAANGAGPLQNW
Test: IP-One (IPOne) orexin receptor agonist assay in CHO cells expressing human OX2R
Format: cell-based
Conditions: for EC50: CHO cells expressing human OX2R, IP-One IP-1 detection, 2 hours incubation, four parameter logistic fit, read-out: OX2R Potency, EC50; for % of reference agonist maximal effect: human OX2R, percentage of sample raw value/mean max effect (reference compound at 1 uM with 100% activity)
Outline: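 CHO cells stably expressing human OX2R were stimulated with compound (10-point ½-log dilutions) for 2 h at 37 °C. IP-1 accumulation was read by HTRF (IP-One, 665/620 nm). EC50 from a four-parameter fit; % effect relative to 1 μM reference agonist control.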

## CC1(C(=O)N2CCC[C@H](c3cc[nH]n3)[C@@H]2CO[C@H]2CC[C@@H](c3ccccc3)CC2)CC1 (relative stereo) [Example 80, (1-methylcyclopropyl)((CIS)-2-((((CIS)-4-phenylcyclohexyl)oxy)methyl)-3-(1H-pyrazol-3-yl)piperidin-1-yl)methanone]
  EC50: 5.55 µM
  % of reference agonist maximal effect: 87.5%

## CC(C)[C@H]1CC[C@@H](OC[C@H]2[C@@H](c3cc[nH]n3)CCCN2C(=O)C2CC2(C)C)CC1 (relative stereo) [Example 81, (2,2-dimethylcyclopropyl)((CIS)-2-((((CIS)-4-isopropylcyclohexyl)oxy)methyl)-3-(1H-pyrazol-3-yl)piperidin-1-yl)methanone]
  EC50: 5.65 µM
  % of reference agonist maximal effect: 70.0%

## CCC(=O)N1CCC[C@H](c2cc[nH]n2)[C@@H]1CO[C@H]1CC[C@@H](C(C)C)CC1 (relative stereo) [Example 82, 1-((CIS)-2-((((CIS)-4-isopropylcyclohexyl)oxy)methyl)-3-(1H-pyrazol-3-yl)piperidin-1-yl)propan-1-one]
  EC50: 5.74 µM
  % of reference agonist maximal effect: 98.1%

## CC(C)[C@H]1CC[C@@H](OC[C@H]2[C@@H](c3cc[nH]n3)CCCN2C(=O)C2CCCC2)CC1 (relative stereo) [Example 83, cyclopentyl((CIS)-2-((((CIS)-4-isopropylcyclohexyl)oxy)methyl)-3-(1H-pyrazol-3-yl)piperidin-1-yl)methanone]
  EC50: 7.08 µM
  % of reference agonist maximal effect: 73.9%

## C=CCC(=O)N1CCC[C@H](c2cc[nH]n2)[C@@H]1CO[C@H]1CC[C@@H](C(C)C)CC1 (relative stereo) [Example 84, 1-((CIS)-2-((((CIS)-4-isopropylcyclohexyl)oxy)methyl)-3-(1H-pyrazol-3-yl)piperidin-1-yl)but-3-en-1-one]
  EC50: 7.14 µM
  % of reference agonist maximal effect: 71.1%

## C#CCCC(=O)N1CCC[C@H](c2cc[nH]n2)[C@@H]1CO[C@H]1CC[C@@H](C(C)C)CC1 (relative stereo) [Example 85, 1-((CIS)-2-((((CIS)-4-isopropylcyclohexyl)oxy)methyl)-3-(1H-pyrazol-3-yl)piperidin-1-yl)pent-4-yn-1-one]
  EC50: 7.58 µM
  % of reference agonist maximal effect: 87%

## C#CCCCC(=O)N1CCC[C@H](c2cc[nH]n2)[C@@H]1CO[C@H]1CC[C@@H](C(C)C)CC1 (relative stereo) [Example 86, 1-((CIS)-2-((((CIS)-4-isopropylcyclohexyl)oxy)methyl)-3-(1H-pyrazol-3-yl)piperidin-1-yl)hex-5-yn-1-one]
  EC50: 8.39 µM
  % of reference agonist maximal effect: 64.7%

## COC(C)(C)C(=O)N1CCC[C@H](c2cc[nH]n2)[C@@H]1CO[C@H]1CC[C@@H](c2ccccc2)CC1 (relative stereo) [Example 87, 2-methoxy-2-methyl-1-((CIS)-2-((((CIS)-4-phenylcyclohexyl)oxy)methyl)-3-(1H-pyrazol-3-yl)piperidin-1-yl)propan-1-one]
  EC50: 8.81 µM
  % of reference agonist maximal effect: 78.7%

## CC(C)[C@H]1CC[C@@H](OC[C@H]2[C@@H](c3cc[nH]n3)CCCN2C(=O)CCC2CC2)CC1 (relative stereo) [Example 88, 3-cyclopropyl-1-((CIS)-2-((((CIS)-4-isopropylcyclohexyl)oxy)methyl)-3-(1H-pyrazol-3-yl)piperidin-1-yl)propan-1-one]
  EC50: 8.98 µM
  % of reference agonist maximal effect: 79%

## CC1(C)C[C@H]1C(=O)N1CCC[C@H](c2cc[nH]n2)[C@@H]1COC1CCC(c2ccccc2)CC1 (relative stereo) [Example 91, ((R)-2,2-dimethylcyclopropyl)((CIS)-2-((((CIS)-4-phenylcyclohexyl)oxy)methyl)-3-(1H-pyrazol-3-yl)piperidin-1-yl)methanone]
  EC50: 6.7 µM
  % of reference agonist maximal effect: 81%

## O=C(C1CC1(F)F)N1CCC[C@H](c2cc[nH]n2)[C@@H]1CO[C@H]1CC[C@@H](c2ccccc2)CC1 (relative stereo) [Example 92, (2,2-difluorocyclopropyl)((CIS)-2-((((CIS)-4-phenylcyclohexyl)oxy)methyl)-3-(1H-pyrazol-3-yl)piperidin-1-yl)methanone]
  EC50: 6.9 µM
  % of reference agonist maximal effect: 88.6%

## CC(C)[C@H]1CC[C@@H](OC[C@H]2[C@@H](c3cc[nH]n3)CCCN2C(=O)OCc2ccccc2Cl)CC1 (relative stereo) [Example 93, 2-chlorobenzyl (CIS)-2-((((CIS)-4-isopropylcyclohexyl)oxy)methyl)-3-(1H-pyrazol-3-yl)piperidine-1-carboxylate]
  EC50: 5.22 µM
  % of reference agonist maximal effect: 28.5%

## C#CCOC(=O)N1CCC[C@H](c2cc[nH]n2)[C@@H]1CO[C@H]1CC[C@@H](C(C)C)CC1 (relative stereo) [Example 95, prop-2-yn-1-yl (CIS)-2-((((CIS)-4-isopropylcyclohexyl)oxy)methyl)-3-(1H-pyrazol-3-yl)piperidine-1-carboxylate]
  EC50: 8.77 µM
  % of reference agonist maximal effect: 79.7%

## O=C(OCC(F)F)N1CCC[C@H](c2cc[nH]n2)[C@@H]1CO[C@H]1CC[C@@H](c2ccccc2)CC1 (relative stereo) [Example 96, 2,2-difluoroethyl (CIS)-2-((((CIS)-4-phenylcyclohexyl)oxy)methyl)-3-(1H-pyrazol-3-yl)piperidine-1-carboxylate]
  EC50: 0.754 µM
  % of reference agonist maximal effect: 91.3%

## CC(=O)COC(=O)N1CCC[C@H](c2cc[nH]n2)[C@@H]1CO[C@H]1CC[C@@H](c2ccccc2)CC1 (relative stereo) [Example 97, 2-oxopropyl (CIS)-2-((((CIS)-4-phenylcyclohexyl)oxy)methyl)-3-(1H-pyrazol-3-yl)piperidine-1-carboxylate]
  EC50: 0.892 µM
  % of reference agonist maximal effect: 99.1%

## COC(=O)COC(=O)N1CCC[C@H](c2cc[nH]n2)[C@@H]1CO[C@H]1CC[C@@H](c2ccccc2)CC1 (relative stereo) [Example 98, 2-methoxy-2-oxoethyl (CIS)-2-((((CIS)-4-phenylcyclohexyl)oxy)methyl)-3-(1H-pyrazol-3-yl)piperidine-1-carboxylate]
  EC50: 1.02 µM
  % of reference agonist maximal effect: 98.7%

## CC(OC(=O)N1CCC[C@H](c2cc[nH]n2)[C@@H]1CO[C@H]1CC[C@@H](c2ccccc2)CC1)C(F)F (relative stereo) [Example 99, 1,1-difluoropropan-2-yl (CIS)-2-((((CIS)-4-phenylcyclohexyl)oxy)methyl)-3-(1H-pyrazol-3-yl)piperidine-1-carboxylate]
  EC50: 1.82 µM
  % of reference agonist maximal effect: 88.9%

## C#CCOC(=O)N1CCC[C@H](c2cc[nH]n2)[C@@H]1CO[C@H]1CC[C@@H](c2ccccc2)CC1 (relative stereo) [Example 100, prop-2-yn-1-yl (CIS)-2-((((CIS)-4-phenylcyclohexyl)oxy)methyl)-3-(1H-pyrazol-3-yl)piperidine-1-carboxylate]
  EC50: 2.36 µM
  % of reference agonist maximal effect: 61.8%

## O=C(Oc1cccnc1)N1CCC[C@H](c2cc[nH]n2)[C@@H]1CO[C@H]1CC[C@@H](c2ccccc2)CC1 (relative stereo) [Example 101, pyridin-3-yl (CIS)-2-((((CIS)-4-phenylcyclohexyl)oxy)methyl)-3-(1H-pyrazol-3-yl)piperidine-1-carboxylate]
  EC50: 2.51 µM
  % of reference agonist maximal effect: 77.7%

## O=C(OCC(F)(F)F)N1CCC[C@H](c2cc[nH]n2)[C@@H]1CO[C@H]1CC[C@@H](c2ccccc2)CC1 (relative stereo) [Example 102, 2,2,2-trifluoroethyl (CIS)-2-((((CIS)-4-phenylcyclohexyl)oxy)methyl)-3-(1H-pyrazol-3-yl)piperidine-1-carboxylate]
  EC50: 2.93 µM
  % of reference agonist maximal effect: 40.7%

## CC#CCOC(=O)N1CCC[C@H](c2cc[nH]n2)[C@@H]1CO[C@H]1CC[C@@H](c2ccccc2)CC1 (relative stereo) [Example 103, but-2-yn-1-yl (CIS)-2-((((CIS)-4-phenylcyclohexyl)oxy)methyl)-3-(1H-pyrazol-3-yl)piperidine-1-carboxylate]
  EC50: 3.61 µM
  % of reference agonist maximal effect: 73.6%

## O=C(OCC1CCC1)N1CCC[C@H](c2cc[nH]n2)[C@@H]1CO[C@H]1CC[C@@H](c2ccccc2)CC1 (relative stereo) [Example 104, cyclobutylmethyl (CIS)-2-((((CIS)-4-phenylcyclohexyl)oxy)methyl)-3-(1H-pyrazol-3-yl)piperidine-1-carboxylate]
  EC50: 3.85 µM
  % of reference agonist maximal effect: 65.1%

## CC(C)COC(=O)N1CCC[C@H](c2cc[nH]n2)[C@@H]1CO[C@H]1CC[C@@H](c2ccccc2)CC1 (relative stereo) [Example 105, isobutyl (CIS)-2-((((CIS)-4-phenylcyclohexyl)oxy)methyl)-3-(1H-pyrazol-3-yl)piperidine-1-carboxylate]
  EC50: 3.94 µM
  % of reference agonist maximal effect: 64.9%

## CC#CCCOC(=O)N1CCC[C@H](c2cc[nH]n2)[C@@H]1CO[C@H]1CC[C@@H](c2ccccc2)CC1 (relative stereo) [Example 106, pent-3-yn-1-yl (CIS)-2-((((CIS)-4-phenylcyclohexyl)oxy)methyl)-3-(1H-pyrazol-3-yl)piperidine-1-carboxylate]
  EC50: 5.08 µM
  % of reference agonist maximal effect: 71.4%
